These results are taken from patent publication US9603980B2, “Layer-by-layer stereocomplexed polymers as drug depot carriers or coatings in medical devices” (Cardinal Health Switzerland 515 GmbH, priority 2008, dated 2017).

The nature of data set [1]: In vitro release of sirolimus and cilostazol from single-layer coating. In kind it is physicochemical. To be noted: single-layer coating of FIG. 83.
The nature of data set [2]: Porcine drug elution PK study of dual drug eluting coating. In kind it is in vivo. To be noted: after eight (8) days of implantation, single-layer coating of FIG. 83. The text has this: Another critical parameter for the performance of the thrombus resistance of a device coated with cilostazol is the duration of the drug release from the coating. This is of particular significance in the two weeks after device implantation. In the porcine drug elution PK studies of the dual drug eluting coating, both cilostazol and sirolius were slowly released from the coating, resulting in a sustained drug release profile. The purpose of the porcine PK study is to assess the local pharmacokinetics of a drug eluting stent at a given implantation time. Normally three stents are implanted in three different coronary arteries in a pig for a given time point and then retrieved for total drug recovery analysis. The stents are retrieved at predetermined time points; namely, 1, 3 and 8 days. The stents are extracted and the total amount of drug remaining on the stents is determined by analysis utilizing HPLC (high performance liquid chromatography) for total drug amount. The difference between the original amount of drug on the stent and the amount of drug retrieved at a given time represents the amount of drug released in that period. The continuous release of drug into surrounding arterial tissue is what prevents the neointimal growth and restenosis in the coronary artery. A normal plot represents the percentage of total drug released (%, y-axis) vs. time of implantation (day, x-axis). […]

Data set [3] concerns tissue hyperplasia and vascular remodeling after coronary angioplasty. The data set is described as follows: IVUS substudy of the MVP restenosis trial. The class given is in vivo, human. The settings on record: for Lumen area: Follow-up Post PTCA (change). The text has this:
Serial intravascular ultrasound (IVUS) examinations have been performed in a consecutive series of patients involved in the MVP trial. By providing tomographic views of coronary arteries with high resolution, IVUS allows quantitative assessment of changes in arterial lumen and wall dimensions. We were therefore able in this study to determine the pathophysiology of coronary restenosis after balloon angioplasty in patients systematically undergoing follow-up IVUS examination and determine the effect of probucol on tissue hyperplasia and vascular remodeling after coronary angioplasty.
The present invention concerns the IVUS substudy from the MVP restenosis trial. MVP was a double-blind placebo-controlled randomized clinical trial with four study groups. The protocol was approved by the Montreal Heart Institute institutional review board. The MVP study design, inclusion and exclusion criteria have been previously described (N Engl J Med 1997; 365-372). Briefly, patients referred for elective coronary angioplasty were evaluated at least 30 days prior to their scheduled procedure. Eligible patients were asked to provide written informed consent. Patients were eligible if they were scheduled to undergo standard balloon angioplasty on at least one native coronary artery and had at least one de novo target lesion with luminal narrowing of fifty percent or more by caliper measurements.
Beginning thirty days prior to scheduled angioplasty, patients were randomly assigned to receive either probucol alone, multivitamins alone, the combination of probucol and multivitamins, or placebo. Probucol 500 mg or matched placebo was administered twice daily. […] The sequence of contrast injections with the exact degree of angulation was recorded and used for every angiogram. Coronary arteriograms (pre-, post-procedure, and final follow-up) were analyzed together using the Coronary Measurement System (CMS), as previously reported. […] Patients were readmitted for follow-up coronary angiography at five to seven months. […]

In a further data set the test system is LDL. The data set is described as follows: Lag phase for LDL peroxidation ex vivo, diene conjugates after addition of copper ions. Also noted: species or system human. The settings on record: treatment for one month; compared with vitamins alone or the combination of probucol and vitamins; preliminary results.
For data set [4], the system named is restenosis after coronary angioplasty. The data set is described as follows: MVP randomized clinical trial, angiographic and clinical outcome. In kind it is in vivo, human. The text has this:
In addition, the invention enables the skilled practitioner to use probucol in conjunction with other percutaneous coronary interventions such as stenting if it is deemed appropriate. The present invention concerns the IVUS substudy from the MVP restenosis trial. MVP was a double-blind placebo-controlled randomized clinical trial with four study groups. The protocol was approved by the Montreal Heart Institute institutional review board. The MVP study design, inclusion and exclusion criteria have been previously described (N Engl J Med 1997; 365-372). Briefly, patients referred for elective coronary angioplasty were evaluated at least 30 days prior to their scheduled procedure. Eligible patients were asked to provide written informed consent. Patients were eligible if they were scheduled to undergo standard balloon angioplasty on at least one native coronary artery and had at least one de novo target lesion with luminal narrowing of fifty percent or more by caliper measurements. Beginning thirty days prior to scheduled angioplasty, patients were randomly assigned to receive either probucol alone, multivitamins alone, the combination of probucol and multivitamins, or placebo. Probucol 500 mg or matched placebo was administered twice daily. The multivitamin complex, consisting of vitamin E 700 IU, vitamin C 500 mg and beta-carotene 30,000 IU, or matched placebo was also administered in one tablet twice daily. All patients received an extra dose of probucol 1000 mg and/or vitamin E 2000 IU and/or matched placebos twelve hours before angioplasty, according to randomization assignment. […] Balloon angioplasty was performed according to standard techniques. […] The sequence of contrast injections with the exact degree of angulation was recorded and used for every angiogram. Coronary arteriograms (pre-, post-procedure, and final follow-up) were analyzed together using the Coronary Measurement System (CMS), as previously reported. Patient follow-up included clinical evaluation, exercise treadmill testing, blood chemistry, pill count and drug level measurements, and dietary assessment and intervention. Patients were readmitted for follow-up coronary angiography at five to seven months. Patients in whom arteriography was performed for clinical reasons before the fifth month returned for repeat angiographic examination at five to seven months if no definite angiographic restenosis was present on at least one dilated site. During follow-up, patients with recurrence or exacerbation of anginal symptoms were treated with medical therapy or revascularization procedures (reangioplasty or Coronary Bypass Surgery) as clinically indicated. […]

Setting [5] is: compared to placebo, probucol given alone.

`O=C1CCc2cc(OCCCCc3nnnn3C3CCCCC3)ccc2N1` [cilostazol, 6[4-(1-cyclohexyl-1H-tetrazol-5-yl)-butoxy]-3,4-dihydro-2-(1H)-quinolinone] yielded an in vitro release in data set [1] of about 35%. Moreover, in data set [2], the “drug remaining in the drug coating” value was about 80%.
For `CC(C)(Sc1cc(C(C)(C)C)c(O)c(C(C)(C)C)c1)Sc1cc(C(C)(C)C)c(O)c(C(C)(C)C)c1` [Probucol Alone, 4,4′-([1-methylethylidene)bis(thio)]bis-[2,6-bis(1,1-dimethylethyl)phenol]], in data set [3] (compliant patients only), the Lumen area is −0.15 ± 1.70 mm^2. For the same molecule, the Lumen area in data set [3] (per segment) is reported as −0.15 ± 1.70 mm^2. In addition, in data set [3] (probucol only compared with placebo), the “increase in vessel enlargement” value was “seven hundred-thirty”. The “protection against LDL oxidation” value in the data set on LDL is given as “significantly greater protection”. Besides, the “reduction of the need for repeat angioplasty” value in data set [4] (at 6 month, compared to placebo, probucol given alone) is “fifty-eight”. In data set [4] (setting [5]), the “reduction of angiographic lumen loss” value is on record as “sixty-eight” and the “reduction of restenosis rate per segment” value was “forty-seven”. Also, the “patients in whom restenosis still occurred” value in data set [4] (patients given probucol alone) is on record as “over twenty”.
